{"source": "paper PMC11530130", "about": "“Peripherally restricted PICK1 inhibitor mPD5 ameliorates pain behaviors in murine inflammatory and neuropathic pain models” (JCI Insight, 2024)", "tested_on": "mice, CFA model of inflammatory pain", "test": "CFA model, marble-burying test", "type": "in vivo, mouse", "procedure": "Induction of inflammatory pain (CFA model).\nInjury was induced on the right hind paw, whereas the contralateral left hind paw was used as internal control of the C57BL/6J male and female mice (Janvier, France). The inflammatory pain was induced by injection of 50 μL undiluted Complete Freund’s Adjuvant (CFA) (F5881, Sigma) unilaterally into the intraplantar surface of the right hind paw, whereas control mice were injected with the same amount of 0.9 % saline (B. Braun, Germany). All intraplantar injections were performed with an insulin needle (0.3 mL BD Micro-Fine) while the animal was under isoflurane anaesthesia (2%) for maximum 60 seconds. Von Frey was applied up to 11 days after unilateral CFA injection depending on the experiment. […]\nFor the first experiment with sustained administration of mPD5 (Figure 7C), the mice underwent a baseline von Frey reading as described in the “Mechanically-evoked pain (von Frey).”-section and SNI surgery as described in “Induction of neuropathic pain (SNI model).”-section. […] At 4,5 hours after the 10 μmol/kg mPD5 injection paw withdrawal threshold was measured again followed by a s.c. injection of 2 μmol/kg mPD5 in all animals. The PWT was measured again at 6 hours +7 hours + 8 hours + 9 hours + 10 hours + 11 hours + 22 hours + 23 hours + 25 hours + 27 hours + 49 hours + 121 hours after the initial 10 μmol/kg mPD5 injection performed on day 125. […]", "note": "“And” between values parts separate entries of the source, which are not always exact repeats. Equal entries are not always repeated."}
{"smiles": "CCCCCCCCCCCCCC(=O)N(CCOCCOCCC(=O)N[C@@H](Cc1c[nH]cn1)C(=O)N[C@@H](Cc1c[nH]c2ccccc12)C(=O)N[C@@H](CC(C)C)C(=O)N[C@@H](CCCCN)C(=O)N[C@H](C(=O)O)C(C)C)CCOCCOCCC(=O)N[C@@H](Cc1c[nH]cn1)C(=O)N[C@@H](Cc1c[nH]c2ccccc12)C(=O)N[C@@H](CC(C)C)C(=O)N[C@@H](CCCCN)C(=O)N[C@H](C(=O)O)C(C)C", "note": "[mPD5, myristoyl-NPEG4-(HWLKV)2]", "values": [{"measurement": "effect on CFA-induced decrease in marble burying", "setting": "10 μmol/kg, to the level of the naive mice", "value": "reverted significantly"}, {"measurement": "marbles buried, individual mice", "setting": "1 hour after s.c. 10 μmol/kg", "value": "6 and 9 and 10 and 11 and 7 and 4 and 5"}]}
